Test results reported in paper PMC3355305, “Localized Dimerization and Nucleoid Binding Drive Gradient Formation by the Bacterial Cell Division Inhibitor MipZ” (Molecular Cell, 2012).
Changes are numbered by the printed parent chain.

Tests used:
[1] = biological target: T1, G14V (Caulobacter vibrioides, UniProt Q9A6C9, G14V); assay: Stopped-flow FRET transient kinetics of mant-ADP binding to MipZ (excitation 297 nm, 360 nm cut-off) at 30 °C in 50 mM Hepes/NaOH pH 7.2, 50 mM KCl, 10 mM MgCl2, 1 mM β-mercaptoethanol; KD calculated as koff/kon, with koff from displacement by excess unlabeled nucleotide.
T1 construct: gene mipZ; hexahistidine-tagged, full length, overproduced in E. coli Rosetta2(DE3)pLysS; constitutively monomeric
T1 sequence (Q9A6C9 1-278 G14V): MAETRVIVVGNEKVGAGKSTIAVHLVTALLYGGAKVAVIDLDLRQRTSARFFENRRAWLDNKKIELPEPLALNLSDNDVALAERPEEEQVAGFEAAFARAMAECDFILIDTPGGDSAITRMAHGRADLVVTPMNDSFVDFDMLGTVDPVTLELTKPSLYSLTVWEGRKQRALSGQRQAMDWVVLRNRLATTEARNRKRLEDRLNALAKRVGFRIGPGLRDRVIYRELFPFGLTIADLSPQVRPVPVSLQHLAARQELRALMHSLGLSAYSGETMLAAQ
Description: (§1) Once released from the dimeric complex, MipZ monomers must undergo nucleotide exchange to enter the next reaction cycle (Figure 2A). To clarify the requirements for the exchange reaction, we studied the nucleotide binding kinetics of MipZ by monitoring its interaction with methylanthraniloyl (mant)-labeled ADP and ATP analogs (Figure S3). Since the mant group blocks dimer formation, our measurements specifically focused on the initial nucleotide-binding step without interference from subsequent reactions.
(§2) Figure S3. Steady-state and transient kinetic analysis of nucleotide binding to MipZ, Related to Table 2.
(§3) (A) Fluorescence emission spectra of mant-ATP. MipZ (1 µM) and/or mant-ATP (60 µM) were mixed in buffer BC containing no (+ Mg2+) or 10 mM (- Mg2+) EDTA. Emission spectra were recorded in a PC1 photon-counting spectrofluorimeter (ISS) using fluorescence resonance energy transfer (FRET) and an excitation wavelength of 290 nm.
(§4) (B) Association of MipZ with mant nucleotides.
(§5) (data not shown), necessitating the use of ADP and ATP analogues that carried a fluorescent methylanthraniloyl (mant) group attached to the 2'- or 3'-hydroxy group of the ribose moiety. Due to the bulkiness of the mant group and a critical role of these hydroxy groups in MipZ dimerization, the modified nucleotides are predicted to block dimer formation, consistent with their failure to be hydrolyzed by MipZ or mediate MipZ self-association in the SPR assay (data not shown). This circumstance allowed us to focus the measurements on the initial nucleotide binding step without interference from subsequent reactions.
(§6) Interaction of the mant group with the protein surface led to a marked increase in fluorescence (panel A). Consistent with the easy accessibility of the nucleotide-binding site and the lack of major conformational changes, the transients recorded after rapid mixing of MipZ with mant nucleotides could be fitted to single-exponential equations, indicating single-step binding reactions.
(§7) Shown is a typical curve representing the change in mant fluorescence upon binding of mant-ATP (30 µM) to MipZ (1 µM).
(§8) Fitting of the data yielded a pseudo-first order rate constant (kobs) of 4.7 s-1. […]
(§9) determining the second-order rate constant of the association reaction. Shown is a representative graph in which the kobs values measured for mant-ATP were plotted against the corresponding mant-ATP concentrations. […]
(§10) (D) Dissociation of mant nucleotides from MipZ. In order to determine the dissociation rate constants (koff), we monitored the displacement of mant-labeled nucleotides from MipZ by an excess of unlabeled nucleotide. […] Shown is a typical curve representing the change in mant fluorescence upon dissociation of mant-ATP (30 µM) from MipZ (1 µM) in the presence of 2 mM ATP. […]

[2] = biological target: T2, K13A (Caulobacter vibrioides, UniProt Q9A6C9, K13A); assay: as above
T2 construct: gene mipZ; hexahistidine-tagged, full length, overproduced in E. coli Rosetta2(DE3)pLysS; constitutively monomeric
T2 sequence (Q9A6C9 1-278 K13A): T1 sequence (Q9A6C9 1-278 G14V) with K13A, V14G
Description: as §1, §2, §3, §4, §5, §6, §7, §8, §9, §10

[3] = biological target: T3, WT (MipZ) (Caulobacter vibrioides, UniProt Q9A6C9); assay: as above
T3 construct: hexahistidine-tagged, full length, overproduced in E. coli Rosetta2(DE3)pLysS
T3 sequence (Q9A6C9 1-278): T1 sequence (Q9A6C9 1-278 G14V) with V14G
Description: as §1, §2, §3, §4, §5, §6, §7, §8, §9, §10

[4] = biological target: T4, D42A (Caulobacter vibrioides, UniProt Q9A6C9, D42A); assay: as above
T4 construct: gene mipZ; hexahistidine-tagged, full length, overproduced in E. coli Rosetta2(DE3)pLysS
T4 sequence (Q9A6C9 1-278 D42A): T1 sequence (Q9A6C9 1-278 G14V) with V14G, D42A
Description: as §1, §2, §3, §4, §5, §6, §7, §8, §9, §10

[5] = biological target: T5, K18Q (Caulobacter vibrioides, UniProt Q9A6C9, K18Q); assay: Stopped-flow FRET transient kinetics of mant-ATP binding to MipZ (excitation 297 nm, 360 nm cut-off) at 30 °C in 50 mM Hepes/NaOH pH 7.2, 50 mM KCl, 10 mM MgCl2, 1 mM β-mercaptoethanol; KD calculated as koff/kon, with koff from displacement by excess unlabeled nucleotide.
T5 construct: gene mipZ; hexahistidine-tagged, full length, overproduced in E. coli Rosetta2(DE3)pLysS; constitutively monomeric
T5 sequence (Q9A6C9 1-278 K18Q): T1 sequence (Q9A6C9 1-278 G14V) with V14G, K18Q
Description: as §1, §2, §3, §4, §5, §6, §7
(§11) Fitting of the data yielded a pseudo-first order rate constant (kobs) of 4.7 s-1.
(§12) (C) Determination of the second-order association rate constants (kon). The pseudo-first order rate constants for the association of […]
(§13) determining the second-order rate constant of the association reaction. Shown is a representative graph in which the kobs values measured for mant-ATP were plotted against the corresponding mant-ATP concentrations. Fitting of the data to the linear function kobs=kon[mant-ATP]+koff yielded a value of 6.8 x 104 M-1s-1 for kon.
(§14) (D) Dissociation of mant nucleotides from MipZ. In order to determine the dissociation rate constants (koff), we monitored the displacement of mant-labeled nucleotides from MipZ by an excess of unlabeled nucleotide. All transients obtained could be fitted to single-exponential functions. Shown is a typical curve representing the change in mant fluorescence upon dissociation of mant-ATP (30 µM) from MipZ (1 µM) in the presence of 2 mM ATP. […]

[6] = biological target: T1, G14V; assay: as above
Description: as §1, §2, §3, §4, §5, §6, §7, §11, §12, §13, §14

[7] = biological target: T2, K13A; assay: as above
Description: as §1, §2, §3, §4, §5, §6, §7, §11, §12, §13, §14

[8] = biological target: T3, WT (MipZ); assay: as above
Description: as §1, §2, §3, §4, §5, §6, §7, §11, §12, §13, §14

[9] = biological target: T4, D42A; assay: as above
Description: as §1, §2, §3, §4, §5, §6, §7, §11, §12, §13, §14

SMILES	Kd [1] [µM]	Kd [2] [µM]	Kd [3] [µM]	Kd [4] [µM]	Kd [5] [µM]	Kd [6] [nM]	Kd [7] [µM]	Kd [8] [µM]	Kd [9] [µM]
CNc1ccccc1C(=O)O[C@H]1[C@@H](O)[C@H](n2cnc3c(N)ncnc32)O[C@@H]1COP(=O)(O)OP(=O)(O)O [mant-ADP, 2'/3'-O-methylanthraniloyl-ADP (methylanthraniloyl-labeled ADP)]	4.5	41	26	69	–	–	–	–	–
CNc1ccccc1C(=O)O[C@H]1[C@@H](O)[C@H](n2cnc3c(N)ncnc32)O[C@@H]1CO[P@@](=O)(O)O[P@](=O)(O)OP(=O)(O)O [mant-ATP, 2'/3'-O-methylanthraniloyl-ATP (methylanthraniloyl-labeled ATP)]	–	–	–	–	121	1300	38	31	58
